# Data taken from the supplement of paper PMC8253809.
# Experiments:
# DIPGX37 [1] = H3.3 K27M diffuse intrinsic pontine glioma line; experiment: EC50 (inflection of fitted growth-inhibition curve) (log10 M)
# Outline: (§1)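 Viability readout was CellTiter-Glo luminescence, log2-transformed, normalised per plate to % activity between negative (solvent) and positive control wells, then pooled. This followed a 7-day exposure (3 days for iAstro) at 37 °C, 5% CO2 to a 10-point threefold dilution series (mean top concentration 35 μM), pin-tool delivered in triplicate to patient-derived pHGG/DIPG cell lines and astrocyte controls on 1% Geltrex-coated 384-well plates. Three- and four-parameter log-logistic fits were compared, and the one with the lowest AICc supplied EC50 and maximal response (yFin).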
# SUDIPGXXI [2] = diffuse intrinsic pontine glioma line; experiment: as above
# Outline: as §1
# SUDIPGVI [3] = diffuse intrinsic pontine glioma line; experiment: as above
# Outline: as §1
# DIPGX9 [4] = diffuse intrinsic pontine glioma line; experiment: as above
# Outline: as §1
# HGGX2 [5] = paediatric high-grade glioma line; experiment: as above
# Outline: as §1
# DIPGX29 [6] = H3.3 K27M diffuse intrinsic pontine glioma line; experiment: as above
# Outline: as §1
# SUDIPGXIX [7] = diffuse intrinsic pontine glioma line; experiment: as above
# Outline: as §1
# HGGX39 [8] = paediatric high-grade glioma line; experiment: as above
# Outline: as §1
# SUDIPGIV [9] = diffuse intrinsic pontine glioma line; experiment: as above
# Outline: as §1
# HABS [10] = astrocyte control; experiment: as above
# Outline: as §1
# iAstro [11] = astrocyte control; experiment: as above
# Outline: as §1
# DIPGX37 [12] = experiment: area under dose-response curve of % growth inhibition (log2 RLU vs DMSO / staurosporine), 1e-11 to 1e-4 M (% x log10 M); higher = more growth inhibition
# Outline: (§2)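 Patient-derived pHGG/DIPG cell lines and astrocytes, cultured on 384-well plates with a 1% Geltrex coating, were given a 10-point threefold dilution series (mean top concentration 35 μM) in triplicate for 7 days (iAstro 3 days) at 37 °C, 5% CO2. CellTiter-Glo signal, log2-transformed and normalised per plate to % activity against solvent and positive controls, was fitted with a log-logistic curve or, where the sigmoid fit failed, a smoothing spline. Area under the curve was then computed by the trapezoid rule.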
# DIPGX7 = H3.3 K27M diffuse intrinsic pontine glioma line; experiment: as above
# Outline: as §2
# SUDIPGXXI [13] = experiment: as above
# Outline: as §2
# HGGX6 = H3.3 G34R paediatric high-grade glioma line; experiment: as above
# Outline: as §2
# SUDIPGVI [14] = experiment: as above
# Outline: as §2
# DIPGX9 [15] = experiment: as above
# Outline: as §2
# HGGX2 [16] = experiment: as above
# Outline: as §2
# DIPGX29 [17] = experiment: as above
# Outline: as §2
# SUDIPGXVII [18] = diffuse intrinsic pontine glioma line; experiment: as above
# Outline: as §2
# SUDIPGXIX [19] = experiment: as above
# Outline: as §2
# HGGX39 [20] = experiment: as above
# Outline: as §2
# SUDIPGIV [21] = experiment: as above
# Outline: as §2
# HGGX42 [22] = H3.3 G34R paediatric high-grade glioma line; experiment: as above
# Outline: as §2
# SUDIPGXIII [23] = diffuse intrinsic pontine glioma line; experiment: as above
# Outline: as §2
# HABS [24] = experiment: as above
# Outline: as §2
# iAstro [25] = experiment: as above
# Outline: as §2
# DIPGX37 [26] = experiment: maximal growth inhibition (yFin) relative to DMSO / staurosporine; higher = more efficacious
# Outline: as §1
# SUDIPGXXI [27] = experiment: as above
# Outline: as §1
# SUDIPGVI [28] = experiment: as above
# Outline: as §1
# DIPGX9 [29] = experiment: as above
# Outline: as §1
# HGGX2 [30] = experiment: as above
# Outline: as §1
# DIPGX29 [31] = experiment: as above
# Outline: as §1
# SUDIPGXIX [32] = experiment: as above
# Outline: as §1
# HGGX39 [33] = experiment: as above
# Outline: as §1
# SUDIPGIV [34] = experiment: as above
# Outline: as §1
# HABS [35] = experiment: as above
# Outline: as §1
# iAstro [36] = experiment: as above
# Outline: as §1
# SUDIPGXVII [37] = experiment: EC50 (inflection of fitted growth-inhibition curve) (log10 M)
# Outline: as §1
# HGGX42 [38] = experiment: as above
# Outline: as §1
# SUDIPGXIII [39] = experiment: as above
# Outline: as §1
# SUDIPGXVII [40] = experiment: maximal growth inhibition (yFin) relative to DMSO / staurosporine; higher = more efficacious
# Outline: as §1
# HGGX42 [41] = experiment: as above
# Outline: as §1
# SUDIPGXIII [42] = experiment: as above
# Outline: as §1
SMILES,EC50 (log10 M) (DIPGX37 [1]),EC50 (log10 M) (SUDIPGXXI [2]),EC50 (log10 M) (DIPGX9 [4]),EC50 (log10 M) (SUDIPGXIX [7]),EC50 (log10 M) (HGGX39 [8]),EC50 (log10 M) (SUDIPGIV [9]),EC50 (log10 M) (HABS [10]),EC50 (log10 M) (iAstro [11]),area under dose-response curve (DIPGX37 [12]),area under dose-response curve (DIPGX7),area under dose-response curve (SUDIPGXXI [13]),area under dose-response curve (HGGX6),area under dose-response curve (SUDIPGVI [14]),area under dose-response curve (DIPGX9 [15]),area under dose-response curve (HGGX2 [16]),area under dose-response curve (DIPGX29 [17]),area under dose-response curve (SUDIPGXVII [18]),area under dose-response curve (SUDIPGXIX [19]),area under dose-response curve (HGGX39 [20]),area under dose-response curve (SUDIPGIV [21]),also measured
COC(=O)Nc1nc2cc(C(=O)c3ccccc3)ccc2[nH]1 [MEBENDAZOLE],-6.7,-6.53,-6.44,-6.45,-6.61,-5.58,-6.45,-5.94,94.4,20.7,246,27.4,30.4,90,93.5,53.6,40.1,71,73.2,93.5,EC50 (log10 M) (SUDIPGVI [3]): -5.51; EC50 (log10 M) (HGGX2 [5]): -5.91; EC50 (log10 M) (DIPGX29 [6]): -6.23; area under dose-response curve (HGGX42 [22]): 38.7; area under dose-response curve (SUDIPGXIII [23]): 17.5; area under dose-response curve (HABS [24]): 80.6; area under dose-response curve (iAstro [25]): 47.3; maximal growth inhibition (DIPGX37 [26]): 36.4%; maximal growth inhibition (SUDIPGXXI [27]): 98.3%; maximal growth inhibition (SUDIPGVI [28]): 22.1%; maximal growth inhibition (DIPGX9 [29]): 36.9%; maximal growth inhibition (HGGX2 [30]): 47.6%; maximal growth inhibition (DIPGX29 [31]): 25.1%; maximal growth inhibition (SUDIPGXIX [32]): 31.4%; maximal growth inhibition (HGGX39 [33]): 28.5%; maximal growth inhibition (SUDIPGIV [34]): 63.1%; maximal growth inhibition (HABS [35]): 32.9%; maximal growth inhibition (iAstro [36]): 28.1%
CC[C@@]1(O)C(=O)OCc2c1cc1n(c2=O)Cc2cc3c(CN(C)C)c(O)ccc3nc2-1 [TOPOTECAN],-4.78,-8.44,-6.06,-5.74,-5.44,-7.62,-6.83,-7.87,150,118,351,75.7,71.8,287,121,71,84.5,267,138,317,EC50 (log10 M) (SUDIPGXVII [37]): -6.09; EC50 (log10 M) (HGGX42 [38]): -7.08; EC50 (log10 M) (SUDIPGXIII [39]): -5.85; area under dose-response curve (HGGX42 [22]): 119; area under dose-response curve (SUDIPGXIII [23]): 60; area under dose-response curve (HABS [24]): 204; area under dose-response curve (iAstro [25]): 134; maximal growth inhibition (DIPGX37 [26]): 103%; maximal growth inhibition (SUDIPGXXI [27]): 79%; maximal growth inhibition (DIPGX9 [29]): 96.3%; maximal growth inhibition (SUDIPGXVII [40]): 39%; maximal growth inhibition (SUDIPGXIX [32]): 98.6%; maximal growth inhibition (HGGX39 [33]): 85.3%; maximal growth inhibition (SUDIPGIV [34]): 87.4%; maximal growth inhibition (HGGX42 [41]): 37.5%; maximal growth inhibition (SUDIPGXIII [42]): 26%; maximal growth inhibition (HABS [35]): 64.3%; maximal growth inhibition (iAstro [36]): 34.6%
CC(=O)Nc1cccc(-n2c(=O)n(C3CC3)c(=O)c3c(Nc4ccc(I)cc4F)n(C)c(=O)c(C)c32)c1 [TRAMETINIB],-7.38,-7.93,-7.37,-7.25,-5.15,-6.66,-6.03,-4.63,299,29.4,358,47.4,62.1,334,96.1,176,135,345,74.7,66.9,EC50 (log10 M) (DIPGX29 [6]): -7.25; EC50 (log10 M) (SUDIPGXVII [37]): -6.86; EC50 (log10 M) (HGGX42 [38]): -4.9; EC50 (log10 M) (SUDIPGXIII [39]): -7.34; area under dose-response curve (HGGX42 [22]): 51.4; area under dose-response curve (SUDIPGXIII [23]): 173; area under dose-response curve (HABS [24]): 162; area under dose-response curve (iAstro [25]): 19; maximal growth inhibition (DIPGX37 [26]): 88.3%; maximal growth inhibition (SUDIPGXXI [27]): 91.1%; maximal growth inhibition (DIPGX9 [29]): 99.2%; maximal growth inhibition (DIPGX29 [31]): 54.2%; maximal growth inhibition (SUDIPGXVII [40]): 47.3%; maximal growth inhibition (SUDIPGXIX [32]): 106%; maximal growth inhibition (HGGX39 [33]): 53.5%; maximal growth inhibition (SUDIPGIV [34]): 26.3%; maximal growth inhibition (HGGX42 [41]): 46.1%; maximal growth inhibition (SUDIPGXIII [42]): 42.5%; maximal growth inhibition (HABS [35]): 78.3%; maximal growth inhibition (iAstro [36]): 32.2%
